Test: Human HepG2 cell viability assay in 384 well format
Type: toxicity, cell-based
Parameters: dose 125 nL, time 70.5 hour; cytotoxicity at 70.5 h: concentration not given beside the values
Details: HepG2 cells, read-out: Inhibition

Row | SMILES | cytotoxicity at 70.5 h [%]
1 | COCc1n[nH]/c(=N/C(=O)COc2cnc(C)cc2O)s1 | -9.66
2 | COc1ccc(-c2n[nH]cc2C2SCC(=O)Nc3[nH]ncc32)cc1 (stereo unspecified) | -9.36
3 | CC(=O)c1cccc(NC(=O)Cn2cc(I)cn2)c1 | -9.34
4 | O=C(CCn1ccc2cc(Br)ccc21)NCc1ccc(C(=O)O)cc1 | -5.77
5 | CC(C)CCn1c(=O)nc2n1C(=O)N(c1ccc(F)cc1)C2 | 22.3
6 | CC(C)Oc1ccccc1C1CC(=O)Nc2c1cnn2C (stereo unspecified) | -11.9
7 | CCNC(=O)c1ccc2c(c1)nc1n2CCN(Cc2ccco2)C1 | -16
8 | Cc1ccccc1N1CC2(CCN(S(=O)(=O)C3CC3)C2)CC1=O (stereo unspecified) | -14.8
9 | CN1[C@@H](C(=O)NCC2CC2)C[C@@H]2CN(Cc3ccco3)C[C@@H]21 | -12.2
10 | Cc1ccccc1N1CC2(CCN(S(=O)(=O)c3cccs3)C2)CC1=O (stereo unspecified) | 14
11 | CCN1C(=O)CCCC12CCCN(C(=O)c1cnccn1)C2 (stereo unspecified) | -5.91
12 | Cc1cccc(CN2C[C@@H]3CN(C(=O)[C@H]4CCCO4)C[C@@H]3C2=O)c1 | -5.16
13 | Cc1noc(C)c1CN1CCCC2(CCN(C(=O)CC3CC3)C2)C1 (stereo unspecified) | 41.6
14 | COCCN1C(=O)CCC12CCN(C(=O)CC1CC1)CC2 | 35.3
15 | Cc1cnc(N2CCC3(CCN(CC4CC4)C3=O)CC2)nc1 | -9.16
16 | C[C@H]1CN(Cc2cnn(C)c2)C[C@@]12CCN(Cc1cccnc1)C2=O | -7.75
17 | COCCC(=O)N1CCCC2(CCC(=O)N2CCOC)CC1 (stereo unspecified) | -7.23
18 | COc1cccc(CN2CCCC3(CCN(C(=O)c4ccco4)C3)C2)c1 (stereo unspecified) | -8.94
19 | COc1cccc(CN2CCCC3(CCN(C(=O)[C@H]4CCCO4)C3)C2)c1 (stereo partly specified) | -2.99
20 | COCCCN1CC2(CCCCN2C(=O)c2ccsc2)CC1=O (stereo unspecified) | 8.24
21 | CS(=O)(=O)N1CCCC12CCCN(S(=O)(=O)c1ccc(F)cc1)C2 (stereo unspecified) | -8.04
22 | c1cncc(COCC2CN(Cc3ccco3)Cc3ccnn3C2)c1 (stereo unspecified) | 0.213
23 | O=C(NCc1cnc2n1CCN(c1ncc(F)cn1)CC2)C1CCC1 | -9.1

Row | SMILES | cytotoxicity at 70.5 h [%]
24 | Cc1occc1C(=O)N1CCc2ncnc(-c3cnn(C)c3)c2CC1 | -8.07
25 | Cc1cc(C(=O)NCc2ccc(-c3n[nH]cc3C(=O)N(C)C)cc2)on1 | -2.38
26 | CN(C)c1ncc(C(=O)N2C[C@H]3C[C@H](Oc4ccccc4)C[C@H]3C2)cn1 | -0.787
27 | c1ccc(CCN2CCCC(c3ccnc4nccn34)C2)cc1 (stereo unspecified) | -1.37
28 | Cc1cc(C(F)(F)F)nc(C2CCCN2S(C)(=O)=O)n1 (stereo unspecified) | 1.14
29 | CCOCCN1CCC(c2cnccn2)CC1 | 21.8
30 | CN1CCN(CC2(O)CCN(C(=O)CCc3ccccc3F)C2)CC1 (stereo unspecified) | 1.21
31 | CO[C@H]1C[C@@H]2CN(C(=O)c3n[nH]c4c3CCCC4)C[C@@H]2C1 | 11
32 | NC(=O)c1sc2ccccc2c1C1CCN(S(=O)(=O)N2CCOCC2)C1 (stereo unspecified) | 1.58
33 | CCN(CC)S(=O)(=O)NCc1ccc(-c2ccc(C(N)=O)c(C)n2)cc1 | -12.3
34 | O=S1(=O)NC(c2ccnc(N3CCOCC3)n2)=Nc2ccccc21 | -9.53
35 | O=S1(=O)NC(c2ccnc(N3CCCC3)n2)=Nc2ccccc21 | -3.65
36 | COc1ccc2c(c1)c(-c1nc(N(C)C)ncc1CN)cn2C | 12.9
37 | Oc1cc(-c2nccs2)nc(C2CCN(Cc3cccs3)CC2)n1 | -8.93
38 | CNc1ncccc1CN1CCC1c1cc(N)nc(C)n1 (stereo unspecified) | 12.5
39 | O=C(c1cc(-n2cccn2)ccc1Cl)N1CCCC(N2CCCC2)C1 (stereo unspecified) | -5.55
40 | CCNC(=O)C1(Cc2cc(-c3ccccc3)no2)CCCN(C)C1 (stereo unspecified) | -5.43
41 | Cc1nnc(N2CCOC(C)(C(=O)NC3CCCC3)C2)c2ccccc12 (stereo unspecified) | -3.81
42 | Cc1cc(-c2nccs2)nc(C2CCN(Cc3cccs3)CC2)n1 | -5.42
43 | COCCCNc1ncc(-c2cccc(F)c2)c(-c2nccn2C)n1 | -6.45
44 | O=C(CC1CCN(c2cccnn2)CC1)Nc1nncs1 | -5.72
45 | OC1(CN2CCC(Cc3ncccn3)CC2)CCOCC1 | 13.1
46 | Cc1nc(N)cc(C2CCN2CCOc2ccccc2)n1 (stereo unspecified) | -6.55

Row | SMILES | cytotoxicity at 70.5 h [%]
47 | Cc1nc(NC2CCCC2)cc(C2CCN2c2ncccn2)n1 (stereo unspecified) | -5.59
48 | CNC(=O)C1CN(c2ccnc(C)n2)CCN1Cc1ccccc1 (stereo unspecified) | -3.79
49 | Cc1nc(C(=O)N2CCCC2c2cncc(CN3CCCC3)n2)co1 (stereo unspecified) | -1.27
50 | Cc1c[nH]c(C2CCCN(Cc3cccc(C(=O)O)c3)C2)n1 (stereo unspecified) | -4.03
51 | Cc1nc(CN2CC(CCCc3ccccn3)(C(=O)N(C)C)C2)co1 | -1.84
52 | Cc1nc(CN2CCC2(CCCc2ccccn2)C(=O)N(C)C)co1 (stereo unspecified) | -5.18
53 | CN(C)C(=O)C1(CCCc2ccccn2)CCN1Cc1nccn1C (stereo unspecified) | -6.27
54 | O=C(c1cc[nH]n1)N1CCCC1c1cncc(CN2CCOCC2)n1 (stereo unspecified) | -4.87
55 | Cn1cc(-c2ccc(C3CCCCN3Cc3cccnc3)cn2)cn1 (stereo unspecified) | -1.27
56 | Cc1cn[nH]c1C1CCCN1Cc1ccc(F)c(F)c1 (stereo unspecified) | -0.872
57 | CCn1cc(S(=O)(=O)N2CCCCCC2c2cc(C)on2)cn1 (stereo unspecified) | 2.09
58 | Cc1cc2ccncc2n1CC1(O)CCN(C(=O)c2ccccn2)CC1 | -1.41
59 | Cc1nc(C)c(C(=O)N2Cc3ccccc3OCC2Cn2ccnc2)s1 (stereo unspecified) | 2.25
60 | CN1C[C@@H](C(=O)N2CCCOCC2)[C@@]2(CCc3ccccc3C(=O)N2)C1 | -1.32
61 | Cc1nc(C)c(C(=O)N2Cc3ccccc3OCC2Cn2ccnc2)o1 (stereo unspecified) | -1.03
62 | CC(C(=O)N1CCCCC1)n1nc(-c2cccs2)cc(N)c1=O (stereo unspecified) | 14.9
63 | O=C(Cn1cnc2cc3c(cc21)OCCCO3)NC1CCCC1 | 25.4
64 | O=C(Cn1cnc2cc3c(cc21)OCCCO3)NC1CCCCC1 | -1.58
65 | CN1CCc2nc3cc(C(=O)NCc4cccs4)ccc3c(=O)n2CC1 | -2.15
66 | COCCNC(=O)c1ccc2c(=O)n3c(nc2c1)CCN(C)CC3 | 7.41
67 | CC(C)N1CCCC(Cc2nccnc2Cl)CC1 (stereo unspecified) | 0.246
68 | CN(C)c1ncc(I)c(C2CCCCN2S(C)(=O)=O)n1 (stereo unspecified) | -3.68
69 | CCn1nc(C)c(CN(Cc2ccccn2)Cc2ccccc2Cl)c1C | 10.9

Row | SMILES | cytotoxicity at 70.5 h [%]
70 | CN(C)Cc1cnc(CC2CCN(CCc3ccccc3)CC2)cn1 | 0.387
71 | COc1ccccc1CN1CCC(Cc2cnc(CN(C)C)cn2)CC1 | -2.82
72 | O=C(CN1C[C@H]2C[C@H](OCc3ccccc3)C[C@H]2C1)N1CCOCC1 | -4.18
73 | CCOc1ccccc1C1CCCN1 (stereo unspecified) | 1.15
74 | CCCN1C(=O)CC2(CCCNC2)C1=O (stereo unspecified) | -14.9
75 | Cc1cccc(CN2CCCCC2c2n[nH]cc2-c2cc(C)no2)c1 (stereo unspecified) | -6.6
76 | CN1C[C@@H](C(=O)N(C)C)[C@@]2(CCc3ccccc3C(=O)N2)C1 | 0.772
77 | c1cnc(Nc2cc(CCC3CCCNC3)ccn2)cn1 (stereo unspecified) | -4.31
78 | CC(C)N1CCCCC1c1nc(N(C)C)ncc1I (stereo unspecified) | 23.9
79 | NCC1[C@H]2CN(CCc3ccccc3)C[C@@H]12 (stereo partly specified) | 43.3
80 | Cc1nc(C)c(C(=O)N2Cc3ccccc3OCC2CN(C)C)o1 (stereo unspecified) | 1.45
81 | O=C(NCC1CC1)C1CCC2(CCN(C(=O)c3ccccn3)CC2)O1 (stereo unspecified) | 20.3
82 | O=C1CCC2(CCCN(CCc3ccccc3)C2)N1Cc1cccnc1 (stereo unspecified) | -25
83 | CC(C)NC(=O)CC1COC2(CCN(Cc3ccccc3)CC2)C1 (stereo unspecified) | -14.2
84 | COc1ccc(CN2CCC3(CC2)CCN(CC2CC2)C3=O)cc1 | -14.4
85 | O=C1C[C@H]2[C@@H](CCN2C(=O)Cc2cccs2)N1Cc1cccnc1 | -17
86 | Cc1cccc(CN2CCc3nnc(CO)n3CC2)n1 | -3.1
87 | CCN1CCC2(C=C(C(=O)NC3CC3)c3ccccc32)CC1 | -3.64
88 | CNC(=O)CN1CCCC12CCN(C(=O)c1ccsc1)CC2 | -6.13
89 | O=C1N(CC2CC2)CCC12CCN(c1ncccn1)CC2 | -3.31
90 | O=C1CCC2(CCN(Cc3ccc(F)cc3)CC2)N1Cc1ccccc1 | -5.78
91 | NC(=O)N1CCC2(CC1)CN(Cc1cccnc1)C(=O)CO2 | -7.6
92 | CCn1nnc2c1C(COC)CN(Cc1ccsc1)C2 (stereo unspecified) | -0.304

Row | SMILES | cytotoxicity at 70.5 h [%]
93 | CN(C)C[C@H]1OC[C@@H]2CCN(C(=O)c3ccco3)C[C@@H]21 | -1.52
94 | COCCO[C@@H]1CCN(Cc2csc(C)n2)[C@H]1Cc1ccccc1 | -8.53
95 | Cc1ccc2c(n1)N(CCn1cccn1)CCN(C(=O)CC1CC1)C2 | -15.3
96 | COC[C@@H]1CC[C@H]2[C@H](CCN2C(=O)c2ccncc2F)O1 | -7.3
97 | Cc1ccc2c(n1)N(CCn1cccn1)CCN(C(=O)NC1CC1)C2 | -10.7
98 | Cc1nc(COC[C@]23COC[C@H]2CN(Cc2ccoc2)C3)cs1 | -9.47
99 | Cc1ccoc1C(=O)N1CCOCC2(CCN(c3ncccn3)C2)C1 (stereo unspecified) | -11.7
100 | CN(C)C[C@H]1OC[C@@H]2CCN(C(=O)c3cccn3C)C[C@@H]21 | -7.55
101 | CNC(=O)[C@@H]1C[C@H]2CN(Cc3ccco3)C[C@H]2N1C | -15.3
102 | CC(C)NC(=O)N1CCN(Cc2ccccn2)CC2(CC(=O)N(C)C2)C1 (stereo unspecified) | 22.3
103 | CN(C)CCN1CCCC12CCN(C(=O)c1cccnc1)CC2 | -3.11
104 | CN1[C@H](CN2CCCC2)C[C@@H]2CN(C(=O)c3cccn3C)CC[C@@H]21 | 1.34
105 | COCCN1CCc2cc(C(=O)N(C)C)c(NCC3CC3)nc2CC1 | -4.26
106 | O=C1CC2(CCN(CC3CC3)C2)CN1c1cccnc1 (stereo unspecified) | -9.06
107 | Cc1cccc(CN2C(=O)C[C@H]3[C@@H]2CCN3Cc2ccccn2)n1 | 23.7
108 | COc1ccccc1CN(CCCn1ccnc1)CC1CCOC1 (stereo unspecified) | -4.43
109 | CC(C)OCCCN(Cc1cnn(C)c1)Cc1ccccn1 | 21.5
110 | Fc1ccccc1CN(CCCn1ccnc1)CC1CCOC1 (stereo unspecified) | 9.07
111 | Cc1ccc(N(CC(=O)c2ccc(Br)cc2)C2=NCCCCC2)cc1 | 16.7

From ChEMBL document CHEMBL3507680, “University of Dundee, Gates Library screen for HepG2 cell viability”
